Measurements from patent US20240226063A1, “SOLUBLE ANALOGUES OF 6BIO THEREOF AND IMPLEMENTATION THEREOF” (JAWAHARLAL NEHRU CENTRE FOR ADVANCED SCIENTIFIC RESEARCH, priority 2021, published 2024).
Entries after “also recorded” stand apart in the source; their conditions may differ.

How the values were obtained:
autophagy flux = experiment: Autophagy flux (levels of autophagosomes and autolysosomes); format: cell-based; conditions: cells, compared to growth media control
Description: The derivatives of 6-BIO such as the compound 6-methoxyindirubin oxime (6-MIO), compound 50 and compound 51 were synthesized to improve their water solubility. The effect of 6-BIO and the aforementioned derivatives of 6-BIO on autophagy flux in the form of autophagosomes and autolysosomes are depicted in FIG. 10. […] Thus, the derivatives have a better potency to restore neuronal function to wild type level in neurodevelopmental disorders and play a neuroprotective role in neurodegeneration.

Syngap1^+/− mice [1] = experiment: Novel object recognition test (memory); format: in vivo; conditions: for Novel Object Recognition (memory, discrimination index): 5 mg/kg intraperitoneal
Protocol: (§1) The ability of 6-BIO on the behavioural deficits related to neurodevelopmental disorders was observed based on its theoretical ability to correct synaptic plasticity, EGABA, and behavioural dysfunction in mice with mutated Syngap1 gene. Two populations of mice tested were: wild type (WT) mice and mice with mutated Syngap1 gene referred to as Syngap1^+/− mice. […] In the control group and the Syngap1^+/− mice, the subjects were administered with 5 mg/kg of 6-BIO based on the bodyweight of the subject. […] For example, 2-9, male mice were used.
The wild type and Syngap1^+/− mice in the absence of any treatment were compared with the mice intra-peritoneally injected with 6-BIO and their behaviour was recorded with regards to recognition of a familiar object versus reaction to a novel object.

Syngap1^+/− mice [2] = experiment: Fluoroethyl-based seizure threshold; format: in vivo; conditions: intraperitoneal, Group III (P30-80), recorded P80
Protocol: For investigating the effect of 6-BIO on the wild type and Syngap1^+/− mice in group III (P30-P80), mice were injected intraperitoneally with 6-BIO. The subsequent fluoroethyl-based seizure threshold i.e., susceptibility of mice to epileptic seizures was evaluated and plotted as grouped data showing individual points for the involuntary and rhythmic muscular contractions and relaxations referred to as clonus.

Syngap1^+/− mice [3] = experiment: Open field test (hyperactivity/motor function and anxiety); format: in vivo; conditions: 5 mg/kg intraperitoneal
Protocol: as §1
Syngap1^+/− mice in groups I, II and III. […]

Syngap1^+/− mice [4] = experiment: EGABA, Cl^− reversal potential; format: in vivo; conditions: 5 mg/kg intraperitoneal, Group I (P10-16), recorded P16
MPTP mice = experiment: MPTP mouse model of Parkinsonism (rotarod and open field test); format: in vivo; conditions: 5 mg/kg intraperitoneal, administered along with MPTP
Protocol: The effect of 6-BIO on neurodegenerative disorders such as Parkinson's was evaluated based on testing the ability of 6-BIO on toxic protein aggregates such as the SNCA/a-synuclein protein in mice (FIG. 9) and the modulation of the autophagy flux (FIG. 10). MPTP is a widely accepted mouse model to study Parkinsonism. […] For the study, mice were intraperitoneally injected with 6-BIO at a concentration of 5 mg/kg based on the body weight of the mice.
FIG. 9 and FIG. 10 illustrated the results observed on the effect of 6-BIO and its derivatives on neurodegenerative disorders. FIG. 9 depicts the effect of administration of 5 mg/kg of 6-BIO on (A) the latency to fall of various cohorts namely placebo mice, MPTP mice (Parkinsonian mice) and the MPTP mice administered with 6-BIO (MPTP+Co) was assessed by rotarod test (B) Representative trajectory maps of all mentioned cohorts as analysed by open field test. (C) Periphery distance travelled by all indicated cohorts as assessed by open field test. […]

Syngap1^+/− mice [5] = experiment: Social novelty test (social interaction and social preference); format: in vivo; conditions: for Social Interference (social interaction, time with stranger 1 vs empty jar) / Social Preference (time with stranger 2 vs stranger 1): 5 mg/kg intraperitoneal
Protocol: as §1
Social Novelty Test: Similar to the novel object recognition in Example 2, the social novelty test was performed for all age groups at 80 days. The social novelty test was performed based on the social interaction (SI) and social preference (SP) of the control wild type and Syngap1^+/− mice and wild type and Syngap1^+/− treated with 6-BIO. The social interaction was observed based on the time spent by the mice in isolation in comparison to time spent with one other mouse (stranger 1) and the social preference was observed based on the time spent with two different mice (stranger 1 and stranger 2)

Syngap1^+/− mice [6] = experiment: Long term potential; format: in vivo; conditions: 5 mg/kg intraperitoneal
[7] = Group II (P10-80), recorded P42/P80
[8] = Group III (P30-80), recorded P80

## O=C1Nc2cc(Br)ccc2/C1=C1/Nc2ccccc2/C1=N\O [compound 50, (2Z,3E)-6′-bromo-3-(hydroxyimino)-[2,3′-biindolinylidene]-2′-one]
Autophagy flux
  Levels of autolysosomes: increased

## COc1ccc2c(c1)NC(=O)C2=C1Nc2ccccc2C1=NO [6-MIO, 6-methoxyindirubin oxime]
Autophagy flux
  Levels of autolysosomes: increased
  Levels of autophagosomes: increased

## O=C1Nc2cc(Br)ccc2/C1=C1/Nc2ccccc2/C1=N\OCCO [compound 51, (2Z,3E)-6′-bromo-3-((2-hydroxyethoxy)imino)-[2,3′-biindolinylidene]-2′-one]
Autophagy flux
  Levels of autolysosomes: increased
  Levels of autophagosomes: increased

## O=C1Nc2cc(Br)ccc2/C1=C1/Nc2ccccc2/C1=N\O [6-BIO, (2′Z, 3′E)-6-Bromoindirubin-3′-oxime]
Syngap1^+/− mice [1]; Group I (P10-16), recorded P80
  Novel Object Recognition (memory, discrimination index): Corrected
Syngap1^+/− mice [1]; [7]
  Novel Object Recognition (memory, discrimination index): Corrected
Syngap1^+/− mice [1]; Group III (P30-80), recorded P80, 5 mg/kg
  Novel Object Recognition (memory, discrimination index): corrected the memory deficits
Syngap1^+/− mice [1]; all three age groups, behaviour at 80 days
  Memory deficits (novel object recognition, discrimination index): substantially corrected memory deficits
Syngap1^+/− mice [2]
  Seizure threshold (fluoroethyl-based, tonic-clonic): corrected the seizure threshold
Syngap1^+/− mice [3]; Group I (P10-16), recorded P16
  Open field, Anxiety (number of entries in the centre): anxiety was corrected
  Open field, Motor function (hyperactivity, total distance travelled): hyperactivity was corrected
Syngap1^+/− mice [3]; Group I (P10-16), recorded P80
  Open field, Anxiety (number of entries in the centre): anxiety was corrected; also recorded: ameliorates
  Open field, Motor function (hyperactivity, total distance travelled): partial correction of hyperactivity; also recorded: ameliorates hyperactivity
Syngap1^+/− mice [3]; [7]
  Open field, Anxiety (number of entries in the centre): anxiety was corrected
  Open field, Motor function (hyperactivity, total distance travelled): partial correction was observed
Syngap1^+/− mice [3]; [8]
  Open field, Anxiety (number of entries in the centre): partial correction of the anxiety
  Open field, Motor function (hyperactivity, total distance travelled): no rescue behaviour
Autophagy flux
  Levels of autophagosomes: increased
Syngap1^+/− mice [4]
  EGABA, Cl^− reversal potential: Corrected
MPTP mice
  Effect on MPTP-induced neurodegeneration (rotarod latency to fall, open field periphery distance): protects neurons from degeneration
Syngap1^+/− mice [5]; Group I (P10-16), recorded P80
  Social Interference (social interaction, time with stranger 1 vs empty jar): Corrected
Syngap1^+/− mice [5]; Group I (P10-16), recorded P80, 5 mg/kg
  Social Preference (time with stranger 2 vs stranger 1): lack of improvement
Syngap1^+/− mice [5]; [7]
  Social Interference (social interaction, time with stranger 1 vs empty jar): Corrected
  Social Preference (time with stranger 2 vs stranger 1): Corrected
Syngap1^+/− mice [5]; [8]
  Social Interference (social interaction, time with stranger 1 vs empty jar): Corrected
  Social Preference (time with stranger 2 vs stranger 1): Corrected
Syngap1^+/− mice [5]; all age groups, recorded at P80
  Social interaction: time spent with stranger 1 as compared to the empty jar: comparable to wild type mice
Syngap1^+/− mice [6]; [7]
  Long term potential: Corrected
Syngap1^+/− mice [6]; [8]
  Long term potential: Corrected
